From patent US10039747B2, “Tetrahydrocyclopentapyrrole derivatives and a method for preparing the same” (Daewoong Pharmaceutical Co., Ltd., priority 2013, dated 2018)
pIC50: −log10 of the molar value. Where a name gives a salt, the structure may show the parent alone.

Target: T1, H+/K+-ATPase (Sus scrofa, UniProt P19156)
T1 construct: reaction buffer solution (60 mmol/l Tris-HCl buffer solution, pH 7.4) containing hog gastric vesicle; from tissue; host or cells: hog stomach (gastric vesicles, by centrifugation after Rabon et al. 1988)
Experiment: Inhibition of proton pump (H+/K+-ATPase) activity in hog gastric vesicles
Assay type: biochemical
Settings: K+ specific H+/K+-ATPase activity, pH 7.4, 37° C. for 40 minutes, malachite green
Summary of the method: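 Hog gastric vesicles in 60 mmol/l Tris-HCl pH 7.4 with compound, started with ATP, 40 min at 37° C. Pi read by malachite green at 570 nm; K+-specific activity taken as difference between +K+ and −K+ activity. IC50 from % inhibition by 4-parameter logistic fit.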

T1 sequence (P19156 2-1034 limits assumed): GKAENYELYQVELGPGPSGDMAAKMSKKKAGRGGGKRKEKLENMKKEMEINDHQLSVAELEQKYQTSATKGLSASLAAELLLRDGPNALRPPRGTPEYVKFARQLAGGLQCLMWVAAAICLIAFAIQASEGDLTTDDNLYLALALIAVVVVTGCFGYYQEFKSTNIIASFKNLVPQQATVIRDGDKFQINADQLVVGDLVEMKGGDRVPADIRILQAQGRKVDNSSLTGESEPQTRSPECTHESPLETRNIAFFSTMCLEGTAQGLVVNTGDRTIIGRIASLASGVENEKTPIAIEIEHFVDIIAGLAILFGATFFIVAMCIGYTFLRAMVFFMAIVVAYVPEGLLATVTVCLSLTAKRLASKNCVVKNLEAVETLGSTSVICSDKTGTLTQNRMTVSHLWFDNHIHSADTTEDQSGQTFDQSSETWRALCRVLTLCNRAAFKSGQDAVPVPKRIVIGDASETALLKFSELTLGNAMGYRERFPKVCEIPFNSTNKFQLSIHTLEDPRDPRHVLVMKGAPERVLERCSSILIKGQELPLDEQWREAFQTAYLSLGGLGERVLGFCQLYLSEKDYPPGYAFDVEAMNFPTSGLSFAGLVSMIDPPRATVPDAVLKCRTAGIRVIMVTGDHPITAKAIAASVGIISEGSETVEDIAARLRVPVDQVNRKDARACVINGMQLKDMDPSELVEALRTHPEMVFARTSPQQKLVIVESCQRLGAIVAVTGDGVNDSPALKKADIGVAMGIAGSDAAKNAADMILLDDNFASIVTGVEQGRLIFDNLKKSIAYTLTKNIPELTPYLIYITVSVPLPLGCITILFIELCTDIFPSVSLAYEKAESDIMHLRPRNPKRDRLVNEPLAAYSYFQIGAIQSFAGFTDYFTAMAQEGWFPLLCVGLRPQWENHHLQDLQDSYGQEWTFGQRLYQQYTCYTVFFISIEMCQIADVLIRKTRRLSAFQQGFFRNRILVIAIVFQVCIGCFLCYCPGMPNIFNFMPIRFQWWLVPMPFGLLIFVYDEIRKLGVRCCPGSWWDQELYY
T1 sequence (P18434 whole entry partner): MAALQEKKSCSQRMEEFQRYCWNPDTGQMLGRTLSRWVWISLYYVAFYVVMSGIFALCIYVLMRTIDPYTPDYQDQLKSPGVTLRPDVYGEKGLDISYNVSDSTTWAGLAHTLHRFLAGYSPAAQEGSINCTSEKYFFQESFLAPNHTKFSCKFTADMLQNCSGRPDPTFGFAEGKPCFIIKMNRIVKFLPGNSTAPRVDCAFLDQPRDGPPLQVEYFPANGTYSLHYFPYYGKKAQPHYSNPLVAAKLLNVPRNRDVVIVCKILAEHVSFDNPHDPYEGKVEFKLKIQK

`CNC1CCc2c1cn(S(=O)(=O)c1cccc(F)c1)c2-c1ccc(F)cc1F` (centres unmarked) [Example 113, 1-(2,4-difluorophenyl)-2-((3-fluorophenyl)sulfonyl)-N-methyl-2,4,5,6-tetrahydrocyclopenta[c]pyrrol-4-amine] was tested. Which pIC50 did it give?
The pIC50 was 6.51.

With `CNC1CCc2c1cn(S(=O)(=O)c1cccc(Cl)c1)c2-c1ccccc1F` (centres unmarked) [Example 1] as the molecule, how does the pIC50 read?
Its pIC50 is 6.47.

With `CC(C)NC1CCc2c1cn(S(=O)(=O)c1cccnc1)c2-c1ccccc1F` (centres unmarked) [Example 104, 1-(2-fluorophenyl)-N-isopropyl-2-(pyridin-3-ylsulfonyl)-2,4,5,6-tetrahydrocyclopenta[c]pyrrol-4-amine] as the molecule, how does the pIC50 read?
The pIC50 was 4.30.

With `CNC1CCc2c1cn(S(=O)(=O)c1cccc(Cl)c1)c2-c1cc(C)sc1C` (centres unmarked) [Example 35, 2-((3-chlorophenyl)sulfonyl)-1-(2,5-dimethylthiophen-3-yl)-N-methyl-2,4,5,6-tetrahydrocyclopenta[c]pyrrol-4-amine] as the molecule, how does the pIC50 read?
The pIC50 was 6.08.

How did the pIC50 turn out when `CNC1CCc2c1cn(S(=O)(=O)c1cccc(Cl)c1)c2-c1ccc(C#N)cc1` (centres unmarked) [Example 13, 4-(2-((3-chlorophenyl)sulfonyl)-4-(methylamino)-2,4,5,6-tetrahydrocyclopenta[c]pyrrol-1-yl)benzonitrile] was run?
The pIC50 was 5.74.

`CNC1CCc2c1cn(S(=O)(=O)c1cccc(Cl)c1)c2-c1ccncc1` (centres unmarked) [Example 42, 2-((3-chlorophenyl)sulfonyl)-N-methyl-1-(pyridin-4-yl)-2,4,5,6-tetrahydrocyclopenta[c]pyrrol-4-amine] was tested. Which pIC50 did it give?
Its pIC50 is 5.27.

How did the pIC50 turn out when `Cc1oc(=O)oc1CN(C)C1CCc2c1cn(S(=O)(=O)c1cccc(Cl)c1)c2-c1ccccc1F` (centres unmarked) [Example 119, 4-(((2-((3-chlorophenyl)sulfonyl)-1-(2-fluorophenyl)-2,4,5,6-tetrahydrocyclopenta[c]pyrrol-4-yl)(methyl)amino)methyl)-5-methyl-1,3-dioxol-2-one] was run?
Its pIC50 is 5.67.

`CNC1CCc2c1cn(S(=O)(=O)c1ccccc1)c2-c1ccccc1F` (centres unmarked) [Example 43, 1-(2-fluorophenyl)-N-methyl-2-(phenylsulfonyl)-2,4,5,6-tetrahydrocyclopenta[c]pyrrol-4-amine] was tested. Which pIC50 did it give?
Its pIC50 is 6.37.

`CNC1CCc2c1cn(S(=O)(=O)c1cccc(C(=O)N3CCOCC3)c1)c2-c1ccccc1F` (centres unmarked) [Example 58, (3-((1-(2-fluorophenyl)-4-(methylamino)-5,6-dihydrocyclopenta[c]pyrrol-2(4H)-yl)sulfonyl)phenyl)(morpholino)methanone] was tested. Which pIC50 did it give?
The pIC50 was 5.24.

With `CNC1CCc2c1cn(Cc1cccc(F)c1)c2-c1ccccc1F` (centres unmarked) [Example 108, 2-(3-fluorobenzyl)-1-(2-fluorophenyl)-N-methyl-2,4,5,6-tetrahydrocyclopenta[c]pyrrol-4-amine] as the molecule, how does the pIC50 read?
The pIC50 was 5.25.

With `CNC1CCc2c1cn(S(=O)(=O)c1ccc(Cl)c(Cl)c1Cl)c2-c1ccccc1F` (centres unmarked) [Example 80, 1-(2-fluorophenyl)-N-methyl-2-((2,3,4-trichlorophenyl)sulfonyl)-2,4,5,6-tetrahydrocyclopenta[c]pyrrol-4-amine] as the molecule, how does the pIC50 read?
The pIC50 was 6.21.

With `CN(C)C1CCCc2c1cn(S(=O)(=O)c1cccc(F)c1)c2-c1ccccc1F` (centres unmarked) [Example 136, 1-(2-fluorophenyl)-2-((3-fluorophenyl)sulfonyl)-N,N-dimethyl-4,5,6,7-tetrahydro-2H-isoindole-4-amine] as the molecule, how does the pIC50 read?
The pIC50 was 4.82.

With `CNC1CCc2c1cn(S(=O)(=O)c1ccccc1Cl)c2-c1cc(Cl)ccc1Cl` (centres unmarked) [Example 50, 2-((2-chlorophenyl)sulfonyl)-1-(2,5-dichlorophenyl)-N-methyl-2,4,5,6-tetrahydrocyclopenta[c]pyrrol-4-amine] as the molecule, how does the pIC50 read?
Its pIC50 is 5.98.

How did the pIC50 turn out when `CNC1NCc2c1cn(S(=O)(=O)c1cccc(Cl)c1)c2-c1ccccc1F` (centres unmarked) [Example 115, 5-((3-chlorophenyl)sulfonyl)-4-(2-fluorophenyl)-N-methyl-1,2,3,5-tetrahydropyrrolo[3,4-c]pyrrol-1-amine hydrochloride] was run?
Its pIC50 is 4.40.

With `CNC1CCc2c1cn(S(=O)(=O)c1cccc(Cl)c1Cl)c2-c1ccccc1F` (centres unmarked) [Example 64, 2-((2,3-dichlorophenyl)sulfonyl)-1-(2-fluorophenyl)-N-methyl-2,4,5,6-tetrahydrocyclopenta[c]pyrrol-4-amine] as the molecule, how does the pIC50 read?
Its pIC50 is 6.08.

How did the pIC50 turn out when `CN(C)c1cccc(S(=O)(=O)n2cc3c(c2-c2ccccc2F)CCCC3N(C)C)c1` (centres unmarked) [Example 143, 2-((3-(dimethylamino)phenyl)sulfonyl)-1-(2-fluorophenyl)-N,N-dimethyl-4,5,6,7-tetrahydro-2H-isoindole-4-amine] was run?
Its pIC50 is 5.30.

With `CNC1CCc2c1cn(Cc1cccc(Cl)c1)c2-c1ccccc1F` (centres unmarked) [Example 107, 2-(3-chlorobenzyl)-1-(2-fluorophenyl)-N-methyl-2,4,5,6-tetrahydrocyclopenta[c]pyrrol-4-amine] as the molecule, how does the pIC50 read?
Its pIC50 is 5.54.

How did the pIC50 turn out when `CNC1CC(C)(C)c2c1cn(S(=O)(=O)c1cccc(Cl)c1)c2-c1ccccc1F` (centres unmarked) [Example 106, 2-((3-chlorophenyl)sulfonyl)-1-(2-fluorophenyl)-N,6,6-trimethyl-2,4,5,6-tetrahydrocyclopenta[c]pyrrol-4-amine] was run?
Its pIC50 is 5.48.

With `CNC1CCc2c1cn(S(=O)(=O)c1cccnc1)c2-c1ccccc1F` (centres unmarked) [Example 88, 1-(2-fluorophenyl)-N-methyl-2-(pyridin-3-ylsulfonyl)-2,4,5,6-tetrahydrocyclopenta[c]pyrrol-4-amine] as the molecule, how does the pIC50 read?
Its pIC50 is 6.29.

How did the pIC50 turn out when `CN(C)C1CCCc2c1cn(S(=O)(=O)c1cccc(OC(F)(F)F)c1)c2-c1ccccc1F` (centres unmarked) [Example 141, 1-(2-fluorophenyl)-N,N-dimethyl-2-((3-(trifluoromethoxy)phenyl)sulfonyl)-4,5,6,7-tetrahydro-2H-isoindole-4-amine] was run?
Its pIC50 is 4.97.

`CNC1CCc2c1cn(S(=O)(=O)c1cccc(Cl)c1)c2-c1ccc(F)c(F)c1` (centres unmarked) [Example 24, 2-((3-chlorophenyl)sulfonyl)-1-(3,4-difluorophenyl)-N-methyl-2,4,5,6-tetrahydrocyclopenta[c]pyrrol-4-amine] was tested. Which pIC50 did it give?
Its pIC50 is 6.32.

`CNC1CCc2c1cn(S(=O)(=O)c1cccc(Cl)c1)c2-c1ccc(C)o1` (centres unmarked) [Example 32, 2-((3-chlorophenyl)sulfonyl)-N-methyl-1-(5-methylfuran-2-yl)-2,4,5,6-tetrahydrocyclopenta[c]pyrrol-4-amine] was tested. Which pIC50 did it give?
The pIC50 was 6.35.

How did the pIC50 turn out when `CNC1CCc2c1cn(S(=O)(=O)c1cccc(Cl)c1)c2-c1ccc(C(F)(F)F)nc1` (centres unmarked) [Example 39] was run?
Its pIC50 is 5.60.

`CCNC1CCc2c1cn(S(=O)(=O)c1cccnc1)c2-c1ccccc1F` (centres unmarked) [Example 103, N-ethyl-1-(2-fluorophenyl)-2-(pyridin-3-ylsulfonyl)-2,4,5,6-tetrahydrocyclopenta[c]pyrrol-4-amine] was tested. Which pIC50 did it give?
The pIC50 was 5.75.

Test system: basal gastric acid secretion in pylorus-ligated rat
Experiment: Inhibition of basal gastric acid secretion in pylorus-ligated rat (Shay's rat model)
Assay type: in vivo
Settings: total acid output, male SD rats, 3 mg/kg into the caudal vein, 5 hours after pylorus ligation
Procedure: 3) Effect of Inhibiting Basal Gastric Acid Secretion in Pylorus-Ligated Rat
The measurement of effect of inhibiting basal gastric acid secretion by the compound of the present invention was conducted according to shay's rat model (Shay, H., et al., 1945, gastroenterology, 5, p 43-61). Male Sprague Dawley (SD) rats (body weight 180-220 g) were divided into X groups (n=5), and fasted while feeding only water for 18 hours. Under isoflurane anesthesia, incision of abdominal cavity of rat was made to ligate pylorus, and, immediately after the ligation, to the control groups, only an aqueous solution of 10% ethanol, 20% polyethyleneglycol (PEG) 400 and 10% Cremophor was administered into the caudal vein, and to the other groups, a test compound suspended in an aqueous solution of 10% ethanol, 20% polyethyleneglycol 400, 10% Cremophor was administered into the caudal vein at a dose of 3 mg/kg/2 ml. […] The amount and the pH of the obtained gastric juice were measured, the acidity of gastric juice was measured with 0.1 N-NaOH volume (ueq/ml) required for automatic titration of gastric juice to pH 7.0, and total acid output was calculated by multiplying the acidity of gastric juice and the amount of gastric juice. % Inhibition activity of test compound=(total acid secretion of control group−total acid secretion of the group treated with test compound)/total acid secretion of control group×100

How did the “% inhibition activity” value turn out when `CNC1CCc2c1cn(S(=O)(=O)c1cccc(F)c1)c2-c1ccc(F)cc1F` (centres unmarked) [Example 113, 1-(2,4-difluorophenyl)-2-((3-fluorophenyl)sulfonyl)-N-methyl-2,4,5,6-tetrahydrocyclopenta[c]pyrrol-4-amine] was run?
Its value is 52%.

For `CNC1CCc2c1cn(S(=O)(=O)c1cccc(Cl)c1)c2-c1ccccc1F` (centres unmarked) [Example 1], which “% inhibition activity” value is on record?
The value was 92%.
